Assay results: patent US20220193084A1, “INHIBITORS OF EZH2 AND METHODS OF USE THEREOF” (Epizyme, Inc., priority 2015, published 2022)

Tests used:
[1] = Oral bioavailability; settings: in vivo
[2] = human, in vivo
Protocol: Table 10 describes a Phase 1 clinical trial design (sponsor protocol no.: E7438-G000-001, ClinicalTrials.gov identifier: NCT01897571). The study population included subjects with relapsed or refractory solid tumors or B-cell lymphoma. Subjects received a 3+3 dose escalation in expansion cohorts receiving 800 mg BID and 1600 mg BID, respectively, or a cohort for ascertaining the effect of food on dosing at 400 mg BID. The primary endpoint was a determination of recommended phase II dose (RP2D)/maximum tolerated dose (MTD). Secondary endpoints included safety, pharmacokinetics (PK), pharmacodynamics (PD) and tumor response, assessed every 8 wks.

CCN(c1cc(-c2ccc(CN3CCOCC3)cc2)cc(C(=O)NCc2c(C)cc(C)[nH]c2=O)c1C)C1CCOCC1 [tazemetostat]
7: Constipation, All Events, All Grades [2] | Thrombocytopenia, All Treatment-Related, All Grades [2]
23: Asthenia, All Events, All Grades [2]
orally bioavailable: oral bioavailability [1]
4: Abdominal pain, All Events, All Grades [2] | Decreased appetite, All Treatment-Related, All Grades [2] | Diarrhea, All Treatment-Related, All Grades [2] | Dry skin, All Treatment-Related, All Grades [2] | Hypophosphatemia, All Events, All Grades [2]
13: Asthenia, All Treatment-Related, All Grades [2]
5: Anemia, All Events, All Grades [2] | Dry skin, All Events, All Grades [2] | Dysgeusia, All Events, All Grades [2] | Dysgeusia, All Treatment-Related, All Grades [2] | Dyspnea, All Events, All Grades [2] | Muscle spasms, All Events, All Grades [2] | Vomiting, All Treatment-Related, All Grades [2]
9: Decreased appetite, All Events, All Grades [2]
0: Abdominal pain, All Treatment-Related, Grade ≥3 [2] | Anemia, All Events, Grade ≥3 [2] | Anemia, All Treatment-Related, Grade ≥3 [2] | Anxiety, All Events, Grade ≥3 [2] | Anxiety, All Treatment-Related, Grade ≥3 [2] | Asthenia, All Events, Grade ≥3 [2] | Asthenia, All Treatment-Related, Grade ≥3 [2] | Constipation, All Events, Grade ≥3 [2] | Constipation, All Treatment-Related, Grade ≥3 [2] | Decreased appetite, All Treatment-Related, Grade ≥3 [2] | Depression, All Treatment-Related, Grade ≥3 [2] | Diarrhea, All Events, Grade ≥3 [2] | Diarrhea, All Treatment-Related, Grade ≥3 [2] | Dry skin, All Events, Grade ≥3 [2] | Dry skin, All Treatment-Related, Grade ≥3 [2] | Dysgeusia, All Events, Grade ≥3 [2] | Dysgeusia, All Treatment-Related, Grade ≥3 [2] | Dyspnea, All Events, Grade ≥3 [2] | Dyspnea, All Treatment-Related, All Grades [2] | Dyspnea, All Treatment-Related, Grade ≥3 [2] | Hypophosphatemia, All Events, Grade ≥3 [2] | Hypophosphatemia, All Treatment-Related, Grade ≥3 [2] | Insomnia, All Events, Grade ≥3 [2] | Insomnia, All Treatment-Related, All Grades [2] | Insomnia, All Treatment-Related, Grade ≥3 [2] | Muscle spasms, All Events, Grade ≥3 [2] | Muscle spasms, All Treatment-Related, Grade ≥3 [2] | Nausea, All Events, Grade ≥3 [2] | Nausea, All Treatment-Related, Grade ≥3 [2] | Night sweats, All Events, Grade ≥3 [2] | Night sweats, All Treatment-Related, Grade ≥3 [2] | Peripheral edema, All Events, Grade ≥3 [2] | Peripheral edema, All Treatment-Related, Grade ≥3 [2] | Vomiting, All Events, Grade ≥3 [2] | Vomiting, All Treatment-Related, Grade ≥3 [2]
6: Diarrhea, All Events, All Grades [2] | Vomiting, All Events, All Grades [2]
1: Abdominal pain, All Events, Grade ≥3 [2] | Abdominal pain, All Treatment-Related, All Grades [2] | Anxiety, All Treatment-Related, All Grades [2] | Decreased appetite, All Events, Grade ≥3 [2] | Depression, All Treatment-Related, All Grades [2] | Hepatocellular injury, All Events, Grade ≥3 [2] | Hepatocellular injury, All Treatment-Related, All Grades [2] | Hepatocellular injury, All Treatment-Related, Grade ≥3 [2] | Hypertension, All Events, Grade ≥3 [2] | Hypertension, All Treatment-Related, Grade ≥3 [2] | Hypophosphatemia, All Treatment-Related, All Grades [2] | Neutropenia, All Events, Grade ≥3 [2] | Neutropenia, All Treatment-Related, Grade ≥3 [2] | Thrombocytopenia, All Treatment-Related, Grade ≥3 [2]
2: Constipation, All Treatment-Related, All Grades [2] | Depression, All Events, Grade ≥3 [2] | Hepatocellular injury, All Events, All Grades [2] | Hypertension, All Treatment-Related, All Grades [2] | Peripheral edema, All Treatment-Related, All Grades [2] | Thrombocytopenia, All Events, Grade ≥3 [2]
acceptable: Safety profile as monotherapy [2]
3: Anemia, All Treatment-Related, All Grades [2] | Anxiety, All Events, All Grades [2] | Depression, All Events, All Grades [2] | Hypertension, All Events, All Grades [2] | Insomnia, All Events, All Grades [2] | Muscle spasms, All Treatment-Related, All Grades [2] | Neutropenia, All Events, All Grades [2] | Neutropenia, All Treatment-Related, All Grades [2] | Night sweats, All Events, All Grades [2] | Night sweats, All Treatment-Related, All Grades [2] | Peripheral edema, All Events, All Grades [2]
8: Nausea, All Events, All Grades [2] | Nausea, All Treatment-Related, All Grades [2] | Thrombocytopenia, All Events, All Grades [2]
